Results reported in PubChem BioAssay AID1919007 (Molecular Pharmacology Branch, DTP, NCI, 2023).

Tested on: A498 complex spheroids with HUVEC/MSC, growth
Experiment: Anticancer human tumor A498 cell line growth inhibition [AhR];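 note: seven day exposure starting three days after spheroid seeding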;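 for viability, T/C: luminescence signal used as a surrogate for viable cells; luminescence viability scaled so 100% equals DMSO vehicle wells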
Conditions: for IC50: curve of first compound; for viability, T/C: stronger effect = lower value; active = viability on the fitted dose curve at most 10% of control; inactive = the rest
From the text: Multicellular complex tumor spheroid response to aryl hydrocarbon receptor antagonists in combination with a variety of drugs and investigational agents in selected tumor cell lines
The current study was undertaken to assess response to aryl hydrocarbon receptor antagonists in combination with standard-of-care drugs and investigational agents in solid tumor complex spheroid models. Complex spheroids include a stromal component modeled by human endothelial cells (HUVEC) and fibroblasts modeled by human mesenchymal stem cells (MSCs). The concentration ranges selected for each drug and investigational agent were based upon clinically achievable concentrations if the clinical Cmax of the agent was known.
Compounds. The drugs and investigational agents: BAY 2416964 (NSC825713), GNF351 (NSC835774), CH-223191 (NSC835775), CPI-455 (NSC825282), aza-TdCyd (NSC777586), decitabine (NSC127716), belinostat (NSC758774), entinostat (NSC756642), pevonedistat (NSC761192), tazemetostat (NSC777109), talazoparib (NSC765396), olaparib (NSC753686), selinexor (NSC780203), nedisertib (M3814, NSC802822), bortezomib (NSC756655), venetoclax (NSC766270), doxorubicin (NSC123127), elimusertib (BAY189344, NSC800525), ceralasertib (AZD6738, NSC777638), TAK-243 (NSC785004), alisertib (NSC759677), etoposide (NSC141540), topotecan (NSC609699), eribulin (NSC707389), gemcitabine (NSC613327), carboplatin (NSC241240), cisplatin (NSC119875), and SN-38 (NSC673596) were obtained from the National Cancer Institute (NCI) Developmental Therapeutics Program Chemical Repository (32). The FDA-approved anticancer drug set is available from the Developmental Therapeutics Program at https://dtp.cancer.gov/organization/dscb/obtaining/available plates.htm. […] The stock solutions were prepared in dimethyl sulfoxide (DMSO, Sigma-Aldrich, St. Louis, MO, cat. D2650), except for the platinum compounds which were prepared in saline (Quality Biological, Gaithersburg, MD, cat. 114-055-101), at 800-fold the tested concentration and stored at -70 degrees C prior to their use. All drugs and investigational agents were tested over a range starting from a high concentration at or near the clinical Cmax and decreasing in half-log increments. If the clinical Cmax for an agent had not been determined, the highest concentration tested was 10 microM (Table 1).
Cell Culture. All cells were maintained in an incubator at 37 degrees C and 5% CO2 with 95% humidity. The PDC lines were cultured according to standard operating procedures established by the NCI PDMR (https://pdmr.cancer.gov). Briefly, all PDCs were thawed and cultured in Matrigel-coated flasks prepared with a working solution of 1X Ham's F-12 nutrient mix, without supplementation (Invitrogen, Waltham, MA, cat. 11765054), 100 U/mL penicillin-streptomycin (Invitrogen, cat. 15140122), and 2.5% Matrigel (Corning Inc., Corning, NY, cat. 354248) for the first three passages. All PDCs were cultured in complete DMEM/F-12 media containing advanced DMEM/F-12 (Invitrogen, cat. 12634028), 4.9% defined fetal bovine serum, heat inactivated (HyClone Laboratories Inc., Logan, UT, cat. SH30070.03HI), 389 ng/mL hydrocortisone (Sigma-Aldrich, cat. H4001), 9.7 ng/mL human EGF recombinant protein (Invitrogen, cat. PHG0313), 23.4 microg/mL adenine (Sigma-Aldrich, cat. A2786), 97.3 U/mL penicillin-streptomycin (Invitrogen, cat. 15140122), 1.9 mM L-glutamine (Invitrogen, cat. 25030081), and 9.7 microM Y-27632 dihydrochloride (Tocris Bioscience, Bristol, United Kingdom, cat. 1254). The PDCs were cultured in complete DMEM/F12 media without 10 microM Y-27632 dihydrochloride for at least two passages prior to the screen. The established cell lines NCI-H1341 and […] were cultured in DMEM/F-12, HEPES (Invitrogen, cat. 11330032), 5% defined fetal bovine serum (HyClone Laboratories Inc., cat. SH30070.03), ITS premix universal culture supplement [insulin (5 microg/mL), transferrin (5 microg/mL), and selenious acid (5 ng/mL)] […]

CCc1c2c(nc3ccc(O)cc13)-c1cc3c(c(=O)n1C2)COC(=O)[C@]3(O)CC + CC(CO)NC(=O)c1cc(-c2ccc(Cl)cc2)nn(-c2cnn(C)c2)c1=O
inactive: viability, T/C (second compound 0.1 µM, first compound 0.000949 µM) 77.1% | viability, T/C (second compound 0.1 µM, first compound 0.003 µM) 77.9% | viability, T/C (second compound 0.1 µM, first compound 0.00949 µM) 61.7% | viability, T/C (second compound 0.1 µM, first compound 0.03 µM) 42.4% | viability, T/C (second compound 0.1 µM, first compound 0.0949 µM) 37.3% | viability, T/C (second compound 0.1 µM, first compound 0.3 µM) 33.1% | viability, T/C (second compound 0.316 µM, first compound 0.000949 µM) 70.8% | viability, T/C (second compound 0.316 µM, first compound 0.003 µM) 70.9% | viability, T/C (second compound 0.316 µM, first compound 0.00949 µM) 57.8% | viability, T/C (second compound 0.316 µM, first compound 0.03 µM) 40.7% | viability, T/C (second compound 0.316 µM, first compound 0.0949 µM) 36.4% | viability, T/C (second compound 0.316 µM, first compound 0.3 µM) 36.7% | viability, T/C (second compound 1 µM, first compound 0.000949 µM) 69.8% | viability, T/C (second compound 1 µM, first compound 0.003 µM) 72.3% | viability, T/C (second compound 1 µM, first compound 0.00949 µM) 62.6% | viability, T/C (second compound 1 µM, first compound 0.03 µM) 41.6% | viability, T/C (second compound 1 µM, first compound 0.0949 µM) 35.5% | viability, T/C (second compound 1 µM, first compound 0.3 µM) 34.1% | viability, T/C (second compound 3.16 µM, first compound 0.000949 µM) 58.8% | viability, T/C (second compound 3.16 µM, first compound 0.003 µM) 63.1% | viability, T/C (second compound 3.16 µM, first compound 0.00949 µM) 58.3% | viability, T/C (second compound 3.16 µM, first compound 0.03 µM) 39.8% | viability, T/C (second compound 3.16 µM, first compound 0.0949 µM) 30.5% | viability, T/C (second compound 3.16 µM, first compound 0.3 µM) 33.8% | viability, T/C (second compound 10 µM, first compound 0.000949 µM) 51.2% | viability, T/C (second compound 10 µM, first compound 0.003 µM) 53.3% | viability, T/C (second compound 10 µM, first compound 0.00949 µM) 46.6% | viability, T/C (second compound 10 µM, first compound 0.03 µM) 36.4% | viability, T/C (second compound 10 µM, first compound 0.0949 µM) 29.3% | viability, T/C (second compound 10 µM, first compound 0.3 µM) 31.8%
19 nM: IC50 (second compound 1 µM)
19.2 nM: IC50 (second compound 0.1 µM)
4.73 nM: IC50 (second compound 10 µM)
16 nM: IC50 (second compound 0.316 µM) | IC50 (second compound 3.16 µM)

Nc1ccn(C2OC(CO)C(O)C2(F)F)c(=O)n1 (stereo not given) + CC(CO)NC(=O)c1cc(-c2ccc(Cl)cc2)nn(-c2cnn(C)c2)c1=O
< 31.6 nM: IC50 (second compound 0.1 µM) | IC50 (second compound 0.316 µM) | IC50 (second compound 1 µM) | IC50 (second compound 3.16 µM) | IC50 (second compound 10 µM)
inactive: viability, T/C (second compound 0.1 µM, first compound 0.0316 µM) 26.1% | viability, T/C (second compound 0.1 µM, first compound 0.1 µM) 25.7% | viability, T/C (second compound 0.1 µM, first compound 0.316 µM) 24.6% | viability, T/C (second compound 0.1 µM, first compound 1 µM) 35.1% | viability, T/C (second compound 0.1 µM, first compound 3.16 µM) 32.8% | viability, T/C (second compound 0.1 µM, first compound 10 µM) 29.9% | viability, T/C (second compound 0.316 µM, first compound 0.0316 µM) 27.5% | viability, T/C (second compound 0.316 µM, first compound 0.1 µM) 25.8% | viability, T/C (second compound 0.316 µM, first compound 0.316 µM) 31% | viability, T/C (second compound 0.316 µM, first compound 1 µM) 32.3% | viability, T/C (second compound 0.316 µM, first compound 3.16 µM) 35% | viability, T/C (second compound 0.316 µM, first compound 10 µM) 28.3% | viability, T/C (second compound 1 µM, first compound 0.0316 µM) 25.6% | viability, T/C (second compound 1 µM, first compound 0.1 µM) 29.8% | viability, T/C (second compound 1 µM, first compound 0.316 µM) 32.1% | viability, T/C (second compound 1 µM, first compound 1 µM) 30.2% | viability, T/C (second compound 1 µM, first compound 3.16 µM) 34.4% | viability, T/C (second compound 1 µM, first compound 10 µM) 29.2% | viability, T/C (second compound 3.16 µM, first compound 0.0316 µM) 27.6% | viability, T/C (second compound 3.16 µM, first compound 0.1 µM) 26.1% | viability, T/C (second compound 3.16 µM, first compound 0.316 µM) 34.2% | viability, T/C (second compound 3.16 µM, first compound 1 µM) 33.7% | viability, T/C (second compound 3.16 µM, first compound 3.16 µM) 29.6% | viability, T/C (second compound 3.16 µM, first compound 10 µM) 27.8% | viability, T/C (second compound 10 µM, first compound 0.0316 µM) 33.2% | viability, T/C (second compound 10 µM, first compound 0.1 µM) 30.1% | viability, T/C (second compound 10 µM, first compound 0.316 µM) 27% | viability, T/C (second compound 10 µM, first compound 1 µM) 29.5% | viability, T/C (second compound 10 µM, first compound 3.16 µM) 27.5% | viability, T/C (second compound 10 µM, first compound 10 µM) 24.1%
